The record followed here is patent publication US11629171B2, “Beta-hairpin peptidomimetics” (POLYPHOR AG, priority 2017, dated 2023).

In brackets after ≈: the same amount, converted by molar mass. Where a SMILES comes first, the peptide text is derived from it. Bridges are numbered along the chain shown (N, C = ends). Roman numbers before positions name the chains, in order. [ ]: non-standard residue; d: D form. The star is where a group is joined. Thr(ol) = C[C@@H](O)[C@H](N)CO; Tle = CC(C)(C)[C@H](N)C(=O)O; Hiv = CC(C)[C@H](O)C(=O)O; dDab = NCC[C@@H](N)C(=O)O; NHCH(CH2OH)2 = OCC(CO)N*; Orn = NCCC[C@H](N)C(=O)O; Dab = NCC[C@H](N)C(=O)O; Dap = NC[C@H](N)C(=O)O

What is called MIC is the least concentration at which growth counts as inhibited. Higher therefore signals a need for much substance.

Common to all, as to assay type: cell-based
Data set [1] deals with Acinetobacter baumannii 872842. The following applies: 872842. As to the method: (§1) The in vitro antimicrobial activities of the peptides were determined in 96-well plates (Greiner, polystyrene) by the standard CLSI broth microdilution method (Clinical and Laboratory Standards Institute 2014. Performance standards for antimicrobial susceptibility testing, 24th informational supplement. Approved standard CLSI M100-S24; Clinical and Laboratory Standards Institute, Wayne, Pa.). The following microorganisms were used to determine antibiotic activity of the peptides: Escherichia coli ATCC 25922, Klebsiella pneumoniae SSI #3010^a), Acinetobacter baumannii DSM 30008, Pseudomonas aeruginosa ATCC 27853 and the clinical isolates Escherichia coli 926415^b), Klebsiella pneumoniae 968733^b), Acinetobacter baumannii 872842^b), Enterobacter cloacae 848840^b) and Escherichia coli MCR-1 Af45^c). Before preparation of inocula, Escherichia coli MCR-1 Af45 was subcultured on Mueller-Hinton II (MH-cation adjusted) agar containing 2 μg/mL colistin. ^a) Obtained from Statens Serum Institut (SSI), Copenhagen, Denmark^b) Obtained from International Health Management Associates, Inc. (IHMA Europe Sàrl), Epalinges, Switzerland^c) Obtained from Prof. Patrice Nordmann, University of Fribourg, Fribourg, Switzerland
(§2) Inocula of the microorganisms were diluted into Mueller-Hinton II (MH-cation adjusted) broth and compared with a 0.5 McFarland standard to give appr. 10^6 colony forming units (CFU)/mL. Aliquots (90 μL) of inoculum were added to 10 μL of MH-II broth+P-80 (Polysorbate 80, 0.002% final concentration, v/v) containing the peptide in serial two-fold dilutions. Antimicrobial activities of the peptides were expressed as the minimal inhibitory concentration (MIC) in μg/mL at which no visible growth was observed after 18-20 hours of incubation at 35° C.

The test system of data set [2] is Acinetobacter baumannii DSM 30008. The following applies: DSM 30008. How it is done:
as §1, §2

The test system of data set [3] is Enterobacter cloacae 848840. To be noted: 848840. How it is done: as §1, §2
The next data set concerns Escherichia coli 926415. The following applies: 926415. How it is done: as §1, §2
Data set [4] deals with Escherichia coli ATCC 25922. The following applies: ATCC 25922. As to the method:
as §1, §2

In data set [5] the test system is Klebsiella pneumoniae 968733. To be noted: 968733. How it is done:
as §1, §2

For data set [6], the system named is Klebsiella pneumoniae SSI #3010. The following applies: SSI #3010. As to the method:
as §1, §2

Data set [7] has as its system Pseudomonas aeruginosa ATCC 27853. The following applies: ATCC 27853. How it is done: as §1, §2
Data set [8] relates to human red blood cells (hRBC). Description: Hemolysis. The following applies: red cells of human, 1 h, 200. A digest of the protocol:
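Read-out is supernatant absorbance at 540 nm, normalised to full lysis by 2% Triton X-100 and zero lysis by PBS with 10% water. Peptides (200 μg/mL) were exposed to 20% v/v washed human erythrocytes at 37° C for 1 h under shaking.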

Consider `CC(C)C[C@@H]1NC(=O)[C@@H](CC(C)C)NC(=O)[C@H](CCN)NC(=O)[C@@H](NC(=O)[C@H](CN)NC(=O)[C@@H](NC(=O)[C@H](CCN)NC(=O)CC[C@H]2NC(=O)[C@H](CCCN)NC(=O)[C@H](CCN)NC(=O)[C@H](Cc3ccc(O)cc3)NC(=O)[C@@H](NC(=O)[C@@H](O)C(C)C)CSSC[C@@H](C(=O)NC(CO)CO)NC(=O)[C@H](C(C)(C)C)NC(=O)[C@H](CO)NC(=O)[C@H](Cc3c[nH]c4ccccc34)NC(=O)[C@H]([C@@H](C)O)NC2=O)[C@@H](C)O)CCNC(=O)[C@H]([C@@H](C)O)NC(=O)[C@H](CCN)NC(=O)[C@H](CCN)NC1=O` [Ex. 163] (I: H-[Hiv]CY[Dab][Orn][dE]TWS[Tle]C-{NHCH(CH2OH)2} / II: [Dab]T[Dap][Dab][Dab][dL]L[Dab][Dab]T; disulfide I:2-I:11; amide I:6-II:N; lactam II:4-II:C), for which the MIC in data set [1] was 0.25 µg/mL (≈ 0.105 µM); in data set [2] it was 0.125 µg/mL (≈ 0.0524 µM); in data set [3] it was 4 µg/mL (≈ 1.68 µM); against Escherichia coli 926415, 0.5 µg/mL (≈ 0.209 µM); in [4], 0.125 µg/mL (≈ 0.0524 µM); in data set [5] it was 0.5 µg/mL (≈ 0.209 µM). Further, the MIC in [6] and in [7] was 0.25 µg/mL (≈ 0.105 µM) throughout. Also, in [8], the “Hemolysis at 200 μg/mL” value was 1%.
Turning to `CC(C)C[C@@H]1NC(=O)[C@@H](CC(C)C)NC(=O)[C@H](CCN)NC(=O)[C@@H](NC(=O)[C@H](CCN)NC(=O)[C@H](CO)NC(=O)[C@H](CCN)NC(=O)CC[C@@H]2NC(=O)[C@H](CN)NC(=O)[C@H](Cc3ccc(O)cc3)NC(=O)[C@@H](NC(=O)[C@@H](O)C(C)C)CSSC[C@@H](C(=O)N[C@H](CO)[C@@H](C)O)NC(=O)[C@H](C(C)(C)C)NC(=O)[C@H](CO)NC(=O)[C@H](Cc3c[nH]c4ccccc34)NC(=O)[C@H]([C@@H](C)O)NC(=O)[C@@H](CCN)NC2=O)CCNC(=O)[C@H]([C@@H](C)O)NC(=O)[C@H](CCN)NC(=O)[C@H](CCN)NC1=O` [Ex. 106] (I: H-[Hiv]CY[Dap]E[dDab]TWS[Tle]C[Thr(ol)] / II: [Dab]S[Dab][Dab][Dab][dL]L[Dab][Dab]T; disulfide I:2-I:11; amide I:5-II:N; lactam II:4-II:C), the MIC is 0.25 µg/mL (≈ 0.105 µM) in data set [1]; 0.0625 µg/mL (≈ 0.0263 µM) in data set [2]; 0.25 µg/mL (≈ 0.105 µM) in [3]; 0.125 µg/mL (≈ 0.0527 µM) against Escherichia coli 926415; 0.0625 µg/mL (≈ 0.0263 µM) in data set [4]; 0.25 µg/mL (≈ 0.105 µM) in data set [5]. Besides, the MIC in data set [6] and in data set [7] was 0.125 µg/mL (≈ 0.0527 µM) each time. Further, the “Hemolysis at 200 μg/mL” value in data set [8] is on record as less than 1%.
Consider `CC(=O)N[C@H](C(=O)N[C@H]1CSSC[C@@H](C(=O)N[C@H](C(N)=O)[C@@H](C)O)NC(=O)[C@H](C(C)(C)C)NC(=O)[C@H](CCC(=O)O)NC(=O)[C@H](Cc2c[nH]c3ccccc23)NC(=O)[C@H](CO)NC(=O)[C@@H](CCN)NC(=O)[C@H](CCC(=O)N[C@@H](CCN)C(=O)N[C@H](C(=O)N[C@@H](CN)C(=O)N[C@H]2CCNC(=O)[C@H]([C@@H](C)O)NC(=O)[C@H](CCN)NC(=O)[C@H](CCN)NC(=O)[C@H](CC(C)C)NC(=O)[C@@H](CC(C)C)NC(=O)[C@H](CCN)NC2=O)[C@@H](C)O)NC(=O)[C@H](CCN)NC(=O)[C@H](Cc2ccc(O)cc2)NC1=O)C(C)C` [Ex. 135] (I: Ac-VCY[Dab]E[dDab]SWE[Tle]CT-NH2 / II: [Dab]T[Dap][Dab][Dab][dL]L[Dab][Dab]T; disulfide I:2-I:11; amide I:5-II:N; lactam II:4-II:C), for which the MIC in [1] stood at 0.03125 µg/mL (≈ 0.0127 µM); in data set [2], 0.03125 µg/mL (≈ 0.0127 µM); in data set [3] it was 0.0625 µg/mL (≈ 0.0253 µM); against Escherichia coli 926415, 0.0625 µg/mL (≈ 0.0253 µM); in data set [4], 0.03125 µg/mL (≈ 0.0127 µM); in data set [5], 0.125 µg/mL (≈ 0.0506 µM). The values for the MIC in [6] and in [7] were 0.0625 µg/mL (≈ 0.0253 µM) and 0.125 µg/mL (≈ 0.0506 µM), respectively. Moreover, the “Hemolysis at 200 μg/mL” value in data set [8] is on record as less than 1%.
